Test [1] addresses T1, cGMP-specific 3',5'-cyclic phosphodiesterase (Homo sapiens, UniProt O76074).
Test [2] addresses Phosphodiesterase, PDE1/PDE5 (Homo sapiens) (UniProt O76074+P54750+Q01064+Q14123). Kind of test: Realtive inhibition of PDE1 and PDE5. Format: protein assay.
Test [3] deals with Phosphodiesterase 2 and 5 (PDE2 and PDE5) (Homo sapiens) (UniProt O76074+O00408). The test is described as follows: Relative inhibition of PDE2 and PDE5. Format: protein assay.
For test [4], the target named is Phosphodiesterase 3 and 5 (PDE3 and PDE5) (Homo sapiens) (UniProt O76074+Q14432+Q13370). Kind of test: Relative inhibition of PDE3 and PDE5. The test is classed as protein assay.
Test [5] addresses Phosphodiesterase 4 and 5 (PDE4 and PDE5) (Homo sapiens) (UniProt O76074+P27815+Q08499+Q07343+Q08493). Kind of test: Relative inhibition of PDE4 and PDE5. Format: protein assay.
Test [6] deals with T1, cGMP-specific 3',5'-cyclic phosphodiesterase. The test is described as follows: Inhibition of human phosphodiesterase 5 at 100 nM.

The structures appear in SMILES notation. pIC50: −log10 of the molar value.

Turning to `CCN1C(=O)c2c(nc(C(=O)OC)n2Cc2ccc(OC)cc2)N2C1=N[C@@H]1CCC[C@@H]12`, the pIC50 (commonly the negative decadic logarithm of the IC50, by convention in mol/L) in test [1] was 8.17.
On the same count and under the same terms, in the case of `CCOc1nc2c(n1Cc1ccc(O)c(Cl)c1)C(=O)N(CC)C1=N[C@@H]3CCC[C@@H]3N12` it was 8.68; in that of `CCOc1nc2c(n1Cc1ccc(O)cc1)C(=O)N(CC)C1=N[C@@H]3CCC[C@@H]3N12`, 9.05.
Molecule `CCN1C(=O)c2c(nc(C(N)=O)n2Cc2ccc(O)c(Cl)c2)N2C[C@@H](Cc3ccccc3)N=C12` gave a pIC50 in test [1] of 8.52. In addition, the Selectivity in test [2] came out at 2600; in test [3] it was 3330; in test [4] it was 3330; in test [5], 1730.
As for `CCN1C(=O)c2c(ncn2Cc2ccc(O)c(Br)c2)N2C1=N[C@@H]1CCC[C@@H]12`, in test [1], the pIC50 is 8.20.
In turn, `CCN1C(=O)c2c(nc(OC)n2Cc2ccc(O)c(C#N)c2)N2C[C@@H](Cc3ccccc3)N=C12` gave a pIC50 in test [1] of 7.37. This pIC50 is 0.83 log units lower than that of the molecule before.
Still for that read-out and setting: in the case of `CCN1C(=O)c2c(nc(OC)n2Cc2ccc(O)c(Br)c2)N2C1=N[C@@H]1CCC[C@@H]12` it was 8.80; in that of `CCN1C(=O)c2c(nc(C(N)=O)n2Cc2ccc(O)c(Cl)c2)N2C1=N[C@@H]1CCC[C@@H]12`, 8.96.
Turning to `CCN1C(=O)c2c(nc(C#Cc3ccccc3)n2Cc2ccc(O)cc2)N2C1=N[C@@H]1CCC[C@@H]12`, the pIC50 in test [1] was 9.52. This pIC50 lies 0.56 log units higher than the previous one.
The same measure, in the same setting: under `CCN1C(=O)c2c(nc(Cc3ccccc3)n2Cc2ccc(C)cc2)N2C1=N[C@@H]1CCC[C@@H]12` stands 7.40.
`CCN1C(=O)c2c(nc(OC)n2Cc2ccc(OC)c(Cl)c2)N2C[C@@H](Cc3ccccc3)N=C12` showed a pIC50 in test [1] of 8.80. Further, the Selectivity was 4380 in test [2], 6250 in test [3], 6250 in test [4] and 394 in test [5].
Molecule `CCN1C(=O)c2c(nc(C(N)=O)n2Cc2ccc(OC)c(Cl)c2)N2C[C@@H](Cc3ccccc3)N=C12` showed a pIC50 in test [1] of 8.55.
Still for that read-out and setting: under `CCN1C(=O)c2c(nc(OC)n2Cc2ccc(OC)c(Br)c2)N2C1=N[C@@H]1CCC[C@@H]12` stands 8.55.
The same measure, in the same setting: in the case of `CCN1C(=O)c2c(nc(C(N)=O)n2Cc2ccc(O)cc2)N2C1=N[C@@H]1CCC[C@@H]12` it was 8.68; in that of `CCN1C(=O)c2c(ncn2Cc2ccc(OC)c(Br)c2)N2C1=N[C@@H]1CCC[C@@H]12`, 8.19.
`CCN1C(=O)c2c(nc(OCc3ccccc3)n2Cc2ccc(O)c(Cl)c2)N2C[C@@H](Cc3ccccc3)N=C12` had a negative-log IC50 (pIC50) in test [1] of 8.68. The Selectivity was 4760 in test [2], 4760 in test [3], 4760 in test [4] and 2170 in test [5].
For `CCN1C(=O)c2c(nc(Cc3ccccc3)n2Cc2cccc(OC)c2)N2C1=N[C@@H]1CCC[C@@H]12`, the inhibition (usually the change of the read-out against control, counted positive when it falls) in test [6] is 14%.
`CCN1C(=O)c2c(nc(C(=O)NC)n2Cc2ccc(OC)c(Cl)c2)N2C1=N[C@@H]1CCC[C@@H]12` gave a pIC50 in test [1] of 8.64.
Still for that read-out and setting: in the case of `CCN1C(=O)c2c(nc(OC)n2Cc2ccc(O)c(Cl)c2)N2C1=N[C@@H]1CCC[C@@H]12` it was 8.70; in that of `CCN1C(=O)c2c(nc(OC)n2Cc2ccc(OC)c(Cl)c2)N2C1=N[C@@H]1CCC[C@@H]12`, 8.30.
The molecule `CCN1C(=O)c2c(nc(N)n2Cc2ccc(O)cc2)N2C1=N[C@@H]1CCC[C@@H]12` had a pIC50 in test [1] of 7.66.
With `CCN1C(=O)c2c(nc(Cc3ccccc3)n2Cc2ccc(N)cc2)N2C1=N[C@@H]1CCC[C@@H]12`, the pIC50 in test [1] is 6.26.
In test [1], `CCN1C(=O)c2c(nc(C(N)=O)n2Cc2ccc(OC)cc2)N2C1=N[C@@H]1CCC[C@@H]12` had a pIC50 of 8.40.
Regarding `CCN1C(=O)c2c(nc(Cc3ccccc3)n2Cc2ccc([N+](=O)[O-])cc2)N2C1=N[C@@H]1CCC[C@@H]12`, in test [6], the inhibition was found to be 8%.
As for `CCN1C(=O)c2c(ncn2Cc2ccc(OC)cc2)N2C1=N[C@@H]1CCC[C@@H]12`, the negative-log IC50 (pIC50) in test [1] was 7.26.
Same read-out and setting: under `CCOc1nc2c(n1Cc1ccc(OC)c(Cl)c1)C(=O)N(CC)C1=N[C@@H]3CCC[C@@H]3N12` stands 8.19; under `CCN1C(=O)c2c(nc(Cc3ccccc3)n2Cc2ccc(OC)c(Cl)c2)N2C1=N[C@@H]1CCC[C@@H]12`, 7.24.
In turn, `CCN1C(=O)c2c(nc(Cc3ccccc3)n2Cc2cccc(Cl)c2)N2C1=N[C@@H]1CCC[C@@H]12` returned an inhibition in test [6] of 26%.
On to `CCOc1nc2c(n1Cc1ccc(OC)c(Br)c1)C(=O)N(CC)C1=N[C@@H]3CCC[C@@H]3N12`, for which the pIC50 in test [1] was 8.27.
The same measure, in the same setting: under `CCN1C(=O)c2c(nc(Cc3ccccc3)n2Cc2ccc(Cl)cc2)N2C1=N[C@@H]1CCC[C@@H]12` stands 6.80; under `CCN1C(=O)c2c(nc(C#Cc3ccccc3)n2Cc2ccccc2)N2C1=N[C@@H]1CCC[C@@H]12`, 8.10; under `CCN1C(=O)c2[nH]c(Cc3ccccc3)nc2N2C1=N[C@@H]1CCC[C@@H]12`, 7.41.
As to `CCN1C(=O)c2c(nc(C(N)=O)n2Cc2ccc(OC)c(Br)c2)N2C1=N[C@@H]1CCC[C@@H]12`, the pIC50 in test [1] was 8.82.
In test [1], `CCN1C(=O)c2c(nc(Cc3ccccc3)n2Cc2ccc3c(c2)OCO3)N2C1=N[C@@H]1CCC[C@@H]12` showed a pIC50 of 7.34.
In the case of `CCN1C(=O)c2c(nc(OC)n2Cc2ccc(OC)c(Br)c2)N2C[C@@H](Cc3ccccc3)N=C12`, the pIC50 in test [1] was 8.66. Also, the Selectivity in test [2] was 4090; in test [3], 4540; in test [4], 4540; in test [5], 418.
Molecule `CCN1C(=O)c2c(nc(S(=O)(=O)CC)n2Cc2ccc(OC)cc2)N2C1=N[C@@H]1CCC[C@@H]12` gave an inhibition in test [6] of 31%.
`CCN1C(=O)c2c(nc(C#N)n2Cc2ccc(OC)cc2)N2C1=N[C@@H]1CCC[C@@H]12` showed a pIC50 in test [1] of 8.20.
Turning to `CCSc1nc2c(n1Cc1ccc(OC)cc1)C(=O)N(CC)C1=N[C@@H]3CCC[C@@H]3N12`, the negative logarithm of the IC50 (pIC50) in test [1] is 7.89.
With `CCN1C(=O)c2c(nc(N=[N+]=[N-])n2Cc2ccc(O)cc2)N2C1=N[C@@H]1CCC[C@@H]12`, the pIC50 in test [1] was 9.21.
On the same count and under the same terms, in the case of `CCSc1nc2c(n1Cc1ccc(O)cc1)C(=O)N(CC)C1=N[C@@H]3CCC[C@@H]3N12` it was 8.74; in that of `CCN1C(=O)c2c(nc(C(F)(F)F)n2Cc2ccc(OC)cc2)N2C1=N[C@@H]1CCC[C@@H]12`, 7.32; in that of `CCN1C(=O)c2c(nc(C(=O)NC)n2Cc2ccc(O)c(Cl)c2)N2C1=N[C@@H]1CCC[C@@H]12`, 8.89.
The same measure, in the same setting: in the case of `CCN1C(=O)c2c(nc(Cc3ccccc3)n2Cc2ccc(OC)cc2)N2C1=N[C@@H]1CCC[C@@H]12` it was 7.70.
As to `CCN1C(=O)c2c(nc(OC)n2Cc2ccc(OC)c(C#N)c2)N2C[C@@H](Cc3ccccc3)N=C12`, in test [1], the pIC50 is 7.96. The Selectivity in test [2] came out at 536; in test [3], 909; in test [4], 909; in test [5] it was 464.
In test [6], `CCN1C(=O)c2c(nc(Cc3ccccc3)n2Cc2ccccc2C)N2C1=N[C@@H]1CCC[C@@H]12` displayed an inhibition of 18%.
For the molecule `CCN1C(=O)c2c(nc(Cc3ccccc3)n2Cc2ccc(C)c(Cl)c2)N2C1=N[C@@H]1CCC[C@@H]12`, the inhibition in test [6] was 27%.
Molecule `CCOc1nc2c(n1Cc1ccc(OC)cc1)C(=O)N(CC)C1=N[C@@H]3CCC[C@@H]3N12` had a pIC50 in test [1] of 7.74.
Still for that read-out and setting: in the case of `CCN1C(=O)c2c(nc(C#Cc3ccccc3)n2Cc2ccc(Cl)cc2)N2C1=N[C@@H]1CCC[C@@H]12` it was 8.30; in that of `CCN1C(=O)c2c(nc(C#Cc3ccccc3)n2Cc2ccc(OC)cc2)N2C1=N[C@@H]1CCC[C@@H]12`, 8.51.
Take `CCN1C(=O)c2c(nc(Cc3ccccc3)n2Cc2ccc3ccccc3c2)N2C1=N[C@@H]1CCC[C@@H]12`: the inhibition in test [6] came to 32%.
In turn, `CCN1C(=O)c2c(nc(OC)n2Cc2ccc(O)c(Br)c2)N2C[C@@H](Cc3ccccc3)N=C12` had a pIC50 in test [1] of 8.89. In addition, the Selectivity stood at 7690 in test [2], 7690 in test [3], 7690 in test [4] and 3770 in test [5].
Regarding `CCN1C(=O)c2c(nc(Cc3ccccc3)n2Cc2cccc(C)c2)N2C1=N[C@@H]1CCC[C@@H]12`, the inhibition in test [6] came out at 26%.
`CCN1C(=O)c2c(nc(Cc3ccccc3)n2Cc2cccc(Br)c2)N2C1=N[C@@H]1CCC[C@@H]12` yielded an inhibition in test [6] of 33%.
On to `CCN1C(=O)c2c(nc(Cc3ccccc3)n2Cc2ccccc2)N2C1=N[C@@H]1CCC[C@@H]12`, for which, in test [1], the pIC50 is 6.89.
Same read-out and setting: under `CCN1C(=O)c2c(nc(C(F)(F)F)n2Cc2ccc(O)cc2)N2C1=N[C@@H]1CCC[C@@H]12` stands 8.15.
Molecule `CCN1C(=O)c2c(nc(N(C)C)n2Cc2ccc(OC)cc2)N2C1=N[C@@H]1CCC[C@@H]12` yielded an inhibition in test [6] of 27%.
For the molecule `CCN1C(=O)c2c(nc(C(N)=O)n2Cc2ccc(O)c(Br)c2)N2C1=N[C@@H]1CCC[C@@H]12`, the negative-log IC50 (pIC50) in test [1] was 9.05.

The record behind these values is ChEMBL document CHEMBL1147608, “SAR development of polycyclic guanine derivatives targeted to the discovery of a selective PDE5 inhibitor for treatment of erectile dysfunction” (Bioorg Med Chem Lett, 2004).
